Columns and labels:
MT1 receptor = MT1 receptor (Homo sapiens, UniProt P48039); experiment: Melatonin MT1 receptor binding study, 2-[125I]-iodomelatonin; settings: 2-[125I]-iodomelatonin radioligand
Experimental: (§1) The MT1 or MT2 receptor binding experiments are carried out using 2-[^125I]-iodomelatonin as reference radioligand. The radioactivity retained is determined using a liquid scintillation counter.
(§2) Competitive binding experiments are then carried out in triplicate using the various test compounds. A range of different concentrations is tested for each compound. The results enable the binding affinities of the compounds tested (Ki) to be determined.

MT2 receptor = target: T1, MT2 receptor (Homo sapiens, UniProt P49286); experiment: Melatonin MT2 receptor binding study, 2-[125I]-iodomelatonin; settings: 2-[125I]-iodomelatonin radioligand
T1 sequence (P49286 1-362): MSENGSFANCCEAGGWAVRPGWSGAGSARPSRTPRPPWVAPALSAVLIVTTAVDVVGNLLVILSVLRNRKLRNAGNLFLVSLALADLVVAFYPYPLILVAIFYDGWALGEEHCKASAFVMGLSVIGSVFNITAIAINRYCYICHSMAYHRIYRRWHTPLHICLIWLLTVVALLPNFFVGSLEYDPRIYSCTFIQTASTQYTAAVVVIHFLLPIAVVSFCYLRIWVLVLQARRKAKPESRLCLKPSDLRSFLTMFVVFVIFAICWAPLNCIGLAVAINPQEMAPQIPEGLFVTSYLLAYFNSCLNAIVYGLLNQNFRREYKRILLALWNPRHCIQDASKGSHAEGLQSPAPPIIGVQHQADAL
Experimental: as §1, §2

human 5-HT2C receptor = target: T2, human 5-HT2C receptor (Homo sapiens, UniProt P28335); experiment: Serotoninergic 5-HT2C receptor binding study, [3H]-mesulergine; settings: membranes from CHO cells expressing human 5-HT2C
T2 construct: expressed in transfected cells
T2 sequence (P28335 33-458): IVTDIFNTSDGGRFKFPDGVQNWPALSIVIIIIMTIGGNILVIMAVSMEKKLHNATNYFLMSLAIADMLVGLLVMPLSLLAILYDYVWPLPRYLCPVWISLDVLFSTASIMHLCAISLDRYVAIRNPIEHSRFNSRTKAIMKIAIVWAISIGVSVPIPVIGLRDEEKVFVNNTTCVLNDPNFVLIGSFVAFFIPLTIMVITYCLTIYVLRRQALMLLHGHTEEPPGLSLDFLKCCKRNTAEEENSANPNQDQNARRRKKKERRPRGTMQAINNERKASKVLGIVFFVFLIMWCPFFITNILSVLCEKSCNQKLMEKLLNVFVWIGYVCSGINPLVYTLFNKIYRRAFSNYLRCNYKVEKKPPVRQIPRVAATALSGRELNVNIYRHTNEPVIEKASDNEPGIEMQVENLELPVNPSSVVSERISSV
Experimental: The affinity of the compounds for the human 5-HT2C receptor is evaluated on membrane preparations from CHO cells stably expressing that receptor.
Incubation is carried out in 50mM TRIS buffer, pH 7.4 containing 10 mM MgCl2 and 0.1% BSA, in the presence of [^3H]-mesulergine (InM) and 25 fmol/ml of receptor. Non-specific binding is determined in the presence of 10 μM mianserin.
The reaction is stopped by the addition of 50 mM TRIS buffer, pH 7.4 followed by a filtration step and 3 successive rinses: the radioactivity bound to the membranes remaining on the filters (GF/B pretreated with 0.1% PEI) is determined by liquid scintillation counting.

MT1 receptor, sequence (P48039 whole entry): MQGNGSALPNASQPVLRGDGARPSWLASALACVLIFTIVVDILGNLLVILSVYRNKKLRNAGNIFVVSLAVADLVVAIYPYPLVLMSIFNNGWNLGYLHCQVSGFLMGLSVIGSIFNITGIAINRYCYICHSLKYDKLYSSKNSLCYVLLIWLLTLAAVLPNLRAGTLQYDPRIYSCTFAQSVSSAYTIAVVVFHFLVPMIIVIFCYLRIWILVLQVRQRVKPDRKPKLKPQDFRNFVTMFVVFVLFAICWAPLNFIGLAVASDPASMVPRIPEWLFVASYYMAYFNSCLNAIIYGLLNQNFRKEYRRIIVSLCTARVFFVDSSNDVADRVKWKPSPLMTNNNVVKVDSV

Q: With `COCC(CNC(C)=O)c1cccc2ccc(OC)cc12` (stereo not drawn) [Example 6, N-[3-Methoxy-2-(7-methoxy-1-naphthyl)propyl]acetamide] as the compound, how does the Ki (MT1 receptor) read?
A: The Ki was 4.9 nM.

Q: And the Ki (MT2 receptor)?
A: The Ki was 8.9 nM.

Q: And the Ki (human 5-HT2C receptor)?
A: Its Ki is 26000 nM.
